# Results reported in patent US5510356A, “Bisquinolines and processes for their production and use to treat malaria” (priority 1991, dated 1996).
# “Also recorded” adds a separate entry of the source.
# Tests used:
# [1] = test system: P. falciparum clone D-6 (Sierra Leone); type: cell-based, Plasmodium falciparum; details: D-6 clone (resistant to mefloquine)
# Procedure: (§1) In vitro activity against P. falciparum was determined using a modification of the semiautomated microdilution technique of Desjardins et al. (1979) and Milhous et al. (1985). Two P. falciparum malaria parasite clones, designated as Sierra Leone (D-6) and Indochina (W-2), are used in susceptibility testing. The former is resistant to mefloquine, and the latter to CQ, pyrimethamine, sulfadoxine, and quinine. Test compounds are dissolved in dimethylsulfoxide, and solutions serially diluted with culture media. Erythrocytes with 0.25 to 0.5% parasitemia are added to each well of a 96-well microdilution plate to give a final hematocrit of 1.5%. […] Results are reported as […] (ng/mL) values. For a complete description of this assay, see Milhous et al. (1985) and Lin et al. (1987).
# [2] = test system: P. falciparum clone W-2 (Indochina); type: cell-based, Plasmodium falciparum
# Procedure: as §1
# [3] = test system: P. berghei (strain KBG 173); assay: In vivo activity against P. berghei in mice, single subcutaneous dose 3 days after infection; set-up: species or system Plasmodium berghei; mice; details: for P. berghei T-C: single dose 3 days post infection, n = 5
# Procedure: In vivo activity against P. berghei was obtained against a drug-sensitive strain of P. berghei (strain KBG 173) (Osdene et al., 1967). Each test compound is administered subcutaneous to five male mice per dilution in a single subcutaneous dose 3 days after infection. Results are expressed in T-C values which indicate the mean survival time of the treated mice beyond that of the control animals; untreated mice survive on average 6.2 days. Compounds are classified as active (A) when the mean survival time of the treated mice is twice that of the controls (>6.2 days), and curative (C) when one or more test animals live 60 days post-infection. Deaths from 0-2 days post-treatment are attributed to toxicity (T).
# P. falciparum = assay: In vitro activity against P. falciparum (both clones, D-6 and W-2); type: cell-based, Plasmodium falciparum; details: for Resistance Index: IC50 (W2)/IC50 (D6) ratio
# Procedure: as §1
# [4] = Solubility in DMSO (noted in NMR work); details: 13C NMR spectra not obtainable
# CQ-resistant malaria = details: cited from earlier work; for activity against malaria / CQ-resistant malaria (in words): literature
# P. berghei = details: cited from earlier work
# [5] = compared to CQ, Li et al., 1981a, Lin et al., 1982
molecule,measurement,setting,value
"Clc1ccc2c(NCCNc3ccnc4cc(Cl)ccc34)ccnc2c1 [Compound 1, N^1 N^2, -Bis(7-chloroquinolin-4-y1)ethane-1,2-diamine]",P. falciparum IC50 (nM) D-6,[1],17.3 nM
same,P. falciparum IC50 (nM) W-2,[2],27.0 nM
same,in vivo activity against P. berghei (in words),[3],without activity in vivo
same,P. berghei T-C,[3]; 40 mg/kg s.c.,0.0 days
same,P. berghei T-C,[3]; 160 mg/kg s.c.,0.4 days
same,P. berghei T-C,[3]; 640 mg/kg s.c.,1.4 days
same,in vitro activity against P. falciparum (in words),P. falciparum,approximately an order of magnitude less potent in vitro
same,Resistance Index,P. falciparum,1.6
same,antimalarial activity (in words),"P. falciparum; general statement, refers to Table I",antimalarial activity
same,solubility in DMSO,[4],low solubilities in DMSO
dichloroquinazine,activity against malaria / CQ-resistant malaria (in words),CQ-resistant malaria,active against CQ-resistant falciparum malaria
same,resistance of P. berghei,"P. berghei; CQ-resistant strain of P. berghei, Warhurst, 1966","Resistance to dichloroquinazine, however, is noted for a CQ-resistant strain of P. berghei"
"Clc1ccc2c(NN3CCN(Nc4ccnc5cc(Cl)ccc45)CC3)ccnc2c1 [1,4-bis(7-chloro-4-quinolylamino)piperazine]",activity against malaria / CQ-resistant malaria (in words),CQ-resistant malaria,active against malaria
same,"activity against P. berghei in mice, compared with CQ","P. berghei; mice, Singh et al., 1971",significantly more effective than is CQ against P. berghei in mice
"Clc1ccc2c(N3CCN(CCCN4CCN(c5ccnc6cc(Cl)ccc56)CC4)CC3)ccnc2c1 [PQ, piperaquine]",P. falciparum IC50 (nM) D-6,[1],8.3 nM
same,P. falciparum IC50 (nM) W-2,[2],16.1 nM
same,Resistance Index,P. falciparum,1.9
same,duration of action,CQ-resistant malaria; [5],longer duration of action
same,toxicity,CQ-resistant malaria; [5],less toxicity when compared to CQ
same,activity against malaria / CQ-resistant malaria (in words),CQ-resistant malaria,active against malaria; also recorded: very effective against CQ-resistant malaria in China
